In patent publication US7964731B2, “Isotopically marked quinoline derivatives as adenosin A3 receptor ligands” (Sanofi-Aventis, priority 2004, dated 2011):

Experiments:
[1] = molecular target: T1, human adenosine A3 receptor (CHO-hA3 membrane preparation) (Homo sapiens, UniProt P0DMS8); test: Scatchard analysis of radioisotope saturation curves of the radioligand of Example 2/a; type: binding
T1 sequence (P0DMS8 1-318): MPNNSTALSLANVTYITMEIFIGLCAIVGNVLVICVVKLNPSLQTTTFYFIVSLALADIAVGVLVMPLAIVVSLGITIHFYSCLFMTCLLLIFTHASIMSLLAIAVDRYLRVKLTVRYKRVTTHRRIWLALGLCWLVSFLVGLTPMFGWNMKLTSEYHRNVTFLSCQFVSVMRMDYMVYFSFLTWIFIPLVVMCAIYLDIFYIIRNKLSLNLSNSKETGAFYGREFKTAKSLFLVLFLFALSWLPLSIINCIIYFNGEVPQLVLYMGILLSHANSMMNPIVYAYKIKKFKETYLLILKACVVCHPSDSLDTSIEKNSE

[2] = molecular target: T2, human A3 receptors (CHO-hA3 membrane preparation) (Homo sapiens, UniProt P0DMS8); test: Human adenosine A3 receptor binding in the presence of [125I]AB-MECA
T2 sequence (P0DMS8 1-318): T1 sequence (P0DMS8 1-318)

[3] = molecular target: T3, human A1 receptors (CHO-hA1 membrane preparation) (Homo sapiens, UniProt P30542); test: Human adenosine A1 receptor binding, [3H]CCPA; settings: 1 μM test compound, radioligand [3H]CCPA
T3 sequence (P30542 1-326): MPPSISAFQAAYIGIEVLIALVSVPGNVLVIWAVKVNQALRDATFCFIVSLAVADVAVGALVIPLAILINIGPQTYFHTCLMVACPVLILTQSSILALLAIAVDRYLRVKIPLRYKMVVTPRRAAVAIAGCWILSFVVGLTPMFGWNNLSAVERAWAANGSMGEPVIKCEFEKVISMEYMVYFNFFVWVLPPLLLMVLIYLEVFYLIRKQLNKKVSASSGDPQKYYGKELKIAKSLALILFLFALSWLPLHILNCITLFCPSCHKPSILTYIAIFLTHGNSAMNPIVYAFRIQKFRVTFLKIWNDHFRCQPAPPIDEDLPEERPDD
Experimental: Preparing membrane suspension: collect ovarium cells of cloned Chinese hamster expressing human A1 receptors (further: CHO-hA1), wash them three times with PBS, centrifuge (1000×g 10 min.) and homogenize (B.Braun Potter S) at 1500/min rotation speed. Buffer: 50 mM Tris HCl, pH 7,4. Centrifuge this homogenized mixture (43.000 g, 10 min), suspense the pellet in the above buffer with adjustment of the protein concentration to 5 mg/mL (Bradford method) and complete with 2 U/mL ADA. […] Filter over Whatman GF/B glass fibre filters (presoaked in 0.5% polyethylimine for 3 hours), wash 4× with 1 mL ice-cold 50 mM Tris HCl (pH 7.4) on 96-well Brandel Cell Harvester. Detection of activity: in 96-well plate in the presence of HiSafe-3 cocktail in beta-counter (1450 Microbeta, Wallac). Inhibition [%]=100−((activity in the presence of test compound−non-specific activity)/(total activity−non-specific activity))*100

[4] = molecular target: T4, human A2a adenosine receptors transfected into HEK-293 cells (Homo sapiens, UniProt P29274); test: Human adenosine A2a receptor binding, [3H]CGS-21680; settings: 1 μM test compound, radioligand [3H]CGS21680; read-out: Inhibition in 1 μM hA2A [3H]CGS21680
T4 construct: purchased Receptor Biology, Inc; host or cells: HEK-293 cells (transfected), membranes
Experimental: Human Adenosine A2a Receptor Binding
Incubate 7 μg of membranes (human A2, adenosine receptors transfected into HEK-293 cells, source: Receptor Biology, Inc.), in the presence of the test compound and 20 nM [^3H]CGS-21680 (2-[p-(2-carbonylethyl)phenylethylamino]-5′-N-ethylcarboxamido-adenosine) (200.000 dpm) in incubation buffer (50 mM Tris HCl, 10 mM MgCl2, 1 mM EDTA, 2 U/mL adenosine deaminase, pH 7.4). The non-specific binding is defined in the presence of […] NECA (5′-N-ethylcarboxamido-adenosine) in a total volume of 100 μl for 90 min at room temperature. Filter in vacuum over Whatman GF/B glass fibre filters (presoaked for 3 hours in 0.5% polyethylimine), wash 4× with 1 mL ice-cold buffer (50 mM Tris HCl, 10 mM MgCl2, 1 mM EDTA, 0.9% NaCl, pH 7.4) on 96-well Brandel Cell Harvester. Detection of activity: in beta-counter (1450 Microbeta, Wallac) in the presence of 200 μL HiSafe-3 cocktail. Inhibition [%]=100−((activity in the presence of test compound−non-specific activity)/(total activity−non-specific activity))*100.

[5] = molecular target: T5, human A2b adenosine receptors transfected into HEK-293 cells (Homo sapiens, UniProt P29275); test: Human adenosine A2b receptor binding, [3H]DPCPX; settings: 1 μM test compound, radioligand [3H]DPCPX; read-out: Inhibition in 1 μM hA2B [3H]DPCPX
T5 construct: purchased Receptor Biology, Inc; host or cells: HEK-293 cells (transfected), membranes
T5 sequence (P29275 1-332): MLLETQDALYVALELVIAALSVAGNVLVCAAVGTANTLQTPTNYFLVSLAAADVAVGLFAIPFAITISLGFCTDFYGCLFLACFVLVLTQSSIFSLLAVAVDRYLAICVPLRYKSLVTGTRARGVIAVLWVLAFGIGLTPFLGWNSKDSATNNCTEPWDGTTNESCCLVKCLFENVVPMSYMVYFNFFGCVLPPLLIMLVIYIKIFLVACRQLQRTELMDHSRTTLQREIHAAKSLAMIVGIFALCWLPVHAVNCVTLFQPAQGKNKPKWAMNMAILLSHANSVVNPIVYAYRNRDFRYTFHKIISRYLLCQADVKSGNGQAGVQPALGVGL
Experimental: Human Adenosine A2b Receptor Binding
Binding protocol: incubate 20.8 μg of membranes (human A2b adenosine receptors transfected into HEK-293 cells, source: Receptor Biology, Inc.), in the presence of the test compound and 32.4 nM [^3H]DPCPX (8-cyclopenthyl-1,3-dipropylxanthine) (800.000 dpm) in incubation buffer (50 mM Tris-HCl, 10 mM MgCl2, 1 mM EDTA, 0.1 mM benzamidine, 2 U/mL adenosine deaminase, pH 6.5). The non-specific binding is defined in the presence of 100 μM NECA (5′-N-ethylcarboxamido-adenosine) in a total volume of 100 μL for 30 min at room temperature. Filter under 25 Hgmm vacuum over Whatman GF/C glass fibre filters (presoaked in 0.5% polyethylimine for 3 hours), wash 4× with 1 mL ice-cold 50 mM Tris HCl (pH 6.5) on 96-well Brandel Cell Harvester. Detection of activity: in beta-counter (1450 Microbeta, Wallac) in the presence of 200 μL of HiSafe-3 cocktail. Inhibition [%]=100−((activity in the presence of test compound−non-specific activity)/(total activity−non-specific activity))*100

[6] = molecular target: T2, human A3 receptors (CHO-hA3 membrane preparation); test: Human adenosine A3 receptor binding in the presence of the radioactive iodine-containing compound of Example 2/a; settings: radioligand of Example 2/a, 4 μg CHO-hA3 preparation, Cheng-Prusoff from IC50; read-out: Ki, the radioligand given in Example 2/a

T4 sequence (P29274 whole entry): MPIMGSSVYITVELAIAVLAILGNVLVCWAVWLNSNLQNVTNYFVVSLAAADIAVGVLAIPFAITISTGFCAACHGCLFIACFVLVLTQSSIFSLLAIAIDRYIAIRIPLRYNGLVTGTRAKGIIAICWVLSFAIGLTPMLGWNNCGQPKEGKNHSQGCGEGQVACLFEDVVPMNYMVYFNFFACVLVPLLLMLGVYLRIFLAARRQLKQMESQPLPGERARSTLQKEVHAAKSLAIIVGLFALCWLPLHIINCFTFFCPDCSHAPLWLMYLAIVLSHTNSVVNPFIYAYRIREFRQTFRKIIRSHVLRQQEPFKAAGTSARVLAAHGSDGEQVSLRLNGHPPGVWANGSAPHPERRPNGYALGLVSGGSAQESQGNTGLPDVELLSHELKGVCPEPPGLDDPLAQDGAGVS

Row | selectivity for adenosine A3 receptor compared to the other adenosine receptor sub-types ([2]; A3 versus A1, A2a, A2b) | Ki ([2]; radioligand [125I]AB-MECA, CHO-hA3 membranes) [nM] | inhibition at 1 µM [3] [%] | inhibition at 1 µM [4] [%] | inhibition at 1 µM [5] [%] | Ki [6] [nM] | SMILES | Kd ([1]; 0.156 nM-10 nM radioligand, 4 μg protein CHO-hA3, read-out: dissociation constant (KD)) [nM] | maximal binding capacity ([1]; 4 μg protein CHO-hA3) [femtomol/1 mg protein]
1 | – | – | – | – | – | – | COc1ccc(C(=O)Nc2nc3ccc([125I])cc3c(NCc3cccs3)c2C#N)cc1 [Example 2/a, 4-Methoxy-N-(6-[^125I]iodo-4-[2-thienylmethylamino]-3-cyanoquinolin-2-yl)benzamide] | 4 | 985
2 | at least thousand-fold selectivity | 1.5 | 4 | 29 | -16 | 1.3 | COc1ccc(C(=O)Nc2nc3ccc(I)cc3c(NCc3cccs3)c2C#N)cc1 [The starting compound of Example 2/b, 4-Methoxy-N-(6-iodo-4-[2-thienylmethylamino]-3-cyanoquinolin-2-yl)benzamide] | – | –
